Results as given in ChEMBL document CHEMBL3758128, “Studies on Aryl-Substituted Phenylalanines: Synthesis, Activity, and Different Binding Modes at AMPA Receptors” (J Med Chem, 2016).

Key:
[1] = molecular target: T1, Glutamate receptor 2 (Rattus norvegicus, UniProt P19491); assay: Displacement of [3H]AMPA from full length rat cloned GluA2(R)o receptor expressed in sf9 cells incubated for 1 to 2 hrs by liquid scintillation counting method
[2] = molecular target: T1, Glutamate receptor 2; assay: Antagonist activity against recombinant rat GluA2(Q)i expressed in xenopus oocytes assessed as inhibition of L-glutamate-induced […] by two electrode voltage clamp method; assay type: cell-based
[3] = molecular target: T2, Glutamate receptor 2 (Homo sapiens, UniProt P42262); assay: Displacement of [3H]AMPA from GluA2 LBD (unknown origin) incubated for 2 hrs by liquid scintillation counting method
[4] = molecular target: Glutamate NMDA receptor
Description: Displacement of [3H]CGP39653 from NMDA receptor in rat brain homogenate after 60 mins by Packard TopCount microplate scintillation counting method

[5] = molecular target: Glutamate receptor ionotropic, kainate 1 (Rattus norvegicus, UniProt P22756); assay: biochemical
Description: Displacement of [3H]SYM2081 from recombinant rat GluK1(Q)1b receptor expressed in sf9 cells incubated for 1 to 2 hrs by liquid scintillation counting method

[6] = molecular target: Glutamate receptor 1 (Rattus norvegicus, UniProt P19490); assay: biochemical
Description: Displacement of [3H]AMPA from rat cloned GluA1o receptor expressed in sf9 cells incubated for 1 to 2 hrs by liquid scintillation counting method

[7] = molecular target: Glutamate receptor 3 (Rattus norvegicus, UniProt P19492); assay: biochemical
Description: Displacement of [3H]AMPA from rat cloned GluA3o receptor expressed in sf9 cells incubated for 1 to 2 hrs by liquid scintillation counting method

[8] = molecular target: Glutamate receptor ionotropic, kainate 2 (Rattus norvegicus, UniProt P42260); assay: biochemical
Description: Displacement of [3H]SYM2081 from cloned rat GluK2(V,C,R)A receptor expressed in sf9 cells incubated for 1 to 2 hrs by liquid scintillation counting method

[9] = molecular target: Glutamate receptor ionotropic, kainate 3 (Rattus norvegicus, UniProt P42264); assay: biochemical
Description: Displacement of [3H]SYM2081 from cloned rat GluK3A receptor expressed in sf9 cells incubated for 1 to 2 hrs by liquid scintillation counting method

[10] = molecular target: T2, Glutamate receptor 2; assay: Agonist activity at human GluA2(Q)i expressed in HEK293 cells assessed as enhancement of glutamate-evoked desensitized current by whole cell patch clamp method; assay type: cell-based

Sequence of Glutamate receptor 3 (P19492 whole entry): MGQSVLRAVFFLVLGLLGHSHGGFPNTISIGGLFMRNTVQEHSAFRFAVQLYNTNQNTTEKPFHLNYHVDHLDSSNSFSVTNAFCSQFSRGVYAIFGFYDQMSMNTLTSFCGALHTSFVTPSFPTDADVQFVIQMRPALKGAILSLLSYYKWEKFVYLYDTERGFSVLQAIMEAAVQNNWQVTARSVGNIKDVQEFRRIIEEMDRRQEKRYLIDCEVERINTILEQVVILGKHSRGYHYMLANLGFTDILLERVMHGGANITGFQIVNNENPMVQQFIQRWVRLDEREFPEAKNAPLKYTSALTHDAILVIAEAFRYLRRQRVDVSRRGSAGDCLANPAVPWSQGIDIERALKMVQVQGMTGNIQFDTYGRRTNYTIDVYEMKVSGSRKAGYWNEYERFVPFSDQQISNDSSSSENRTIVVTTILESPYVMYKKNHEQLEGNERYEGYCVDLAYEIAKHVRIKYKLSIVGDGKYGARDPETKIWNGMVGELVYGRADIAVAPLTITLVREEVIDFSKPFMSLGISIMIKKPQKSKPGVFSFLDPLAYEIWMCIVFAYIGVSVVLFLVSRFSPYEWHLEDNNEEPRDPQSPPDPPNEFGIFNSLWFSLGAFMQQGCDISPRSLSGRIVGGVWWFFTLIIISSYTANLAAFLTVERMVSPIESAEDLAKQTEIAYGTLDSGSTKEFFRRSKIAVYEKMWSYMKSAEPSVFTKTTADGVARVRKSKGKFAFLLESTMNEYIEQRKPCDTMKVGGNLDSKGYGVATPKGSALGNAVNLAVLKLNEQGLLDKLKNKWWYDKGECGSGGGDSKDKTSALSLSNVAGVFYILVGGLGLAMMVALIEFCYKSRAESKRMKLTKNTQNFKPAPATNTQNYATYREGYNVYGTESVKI
Sequence of Glutamate receptor ionotropic, kainate 1 (P22756 whole entry): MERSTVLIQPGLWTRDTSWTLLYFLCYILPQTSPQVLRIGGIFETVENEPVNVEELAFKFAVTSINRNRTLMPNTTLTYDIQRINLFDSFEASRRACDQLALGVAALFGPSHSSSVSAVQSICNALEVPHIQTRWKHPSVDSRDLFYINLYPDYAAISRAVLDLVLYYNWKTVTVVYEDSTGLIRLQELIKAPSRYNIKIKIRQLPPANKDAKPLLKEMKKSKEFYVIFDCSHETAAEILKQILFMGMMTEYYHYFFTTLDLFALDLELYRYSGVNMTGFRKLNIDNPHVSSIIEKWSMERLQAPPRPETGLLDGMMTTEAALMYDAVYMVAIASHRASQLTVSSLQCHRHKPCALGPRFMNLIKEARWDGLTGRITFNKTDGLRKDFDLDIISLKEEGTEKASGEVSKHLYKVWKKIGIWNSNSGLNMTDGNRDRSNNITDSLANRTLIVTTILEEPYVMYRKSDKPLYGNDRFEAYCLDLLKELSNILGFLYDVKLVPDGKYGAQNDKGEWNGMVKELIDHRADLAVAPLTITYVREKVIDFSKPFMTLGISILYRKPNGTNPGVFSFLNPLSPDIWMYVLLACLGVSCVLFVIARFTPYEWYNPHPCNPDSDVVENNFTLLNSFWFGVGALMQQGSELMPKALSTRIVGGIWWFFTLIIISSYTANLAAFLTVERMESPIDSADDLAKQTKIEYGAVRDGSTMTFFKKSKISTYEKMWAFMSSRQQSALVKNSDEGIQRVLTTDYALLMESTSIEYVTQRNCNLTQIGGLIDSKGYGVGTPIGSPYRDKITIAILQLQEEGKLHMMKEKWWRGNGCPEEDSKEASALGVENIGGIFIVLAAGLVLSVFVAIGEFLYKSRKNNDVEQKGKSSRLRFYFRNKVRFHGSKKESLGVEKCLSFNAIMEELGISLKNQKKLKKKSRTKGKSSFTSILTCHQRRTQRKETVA
Sequence of Glutamate receptor 1 (P19490 whole entry): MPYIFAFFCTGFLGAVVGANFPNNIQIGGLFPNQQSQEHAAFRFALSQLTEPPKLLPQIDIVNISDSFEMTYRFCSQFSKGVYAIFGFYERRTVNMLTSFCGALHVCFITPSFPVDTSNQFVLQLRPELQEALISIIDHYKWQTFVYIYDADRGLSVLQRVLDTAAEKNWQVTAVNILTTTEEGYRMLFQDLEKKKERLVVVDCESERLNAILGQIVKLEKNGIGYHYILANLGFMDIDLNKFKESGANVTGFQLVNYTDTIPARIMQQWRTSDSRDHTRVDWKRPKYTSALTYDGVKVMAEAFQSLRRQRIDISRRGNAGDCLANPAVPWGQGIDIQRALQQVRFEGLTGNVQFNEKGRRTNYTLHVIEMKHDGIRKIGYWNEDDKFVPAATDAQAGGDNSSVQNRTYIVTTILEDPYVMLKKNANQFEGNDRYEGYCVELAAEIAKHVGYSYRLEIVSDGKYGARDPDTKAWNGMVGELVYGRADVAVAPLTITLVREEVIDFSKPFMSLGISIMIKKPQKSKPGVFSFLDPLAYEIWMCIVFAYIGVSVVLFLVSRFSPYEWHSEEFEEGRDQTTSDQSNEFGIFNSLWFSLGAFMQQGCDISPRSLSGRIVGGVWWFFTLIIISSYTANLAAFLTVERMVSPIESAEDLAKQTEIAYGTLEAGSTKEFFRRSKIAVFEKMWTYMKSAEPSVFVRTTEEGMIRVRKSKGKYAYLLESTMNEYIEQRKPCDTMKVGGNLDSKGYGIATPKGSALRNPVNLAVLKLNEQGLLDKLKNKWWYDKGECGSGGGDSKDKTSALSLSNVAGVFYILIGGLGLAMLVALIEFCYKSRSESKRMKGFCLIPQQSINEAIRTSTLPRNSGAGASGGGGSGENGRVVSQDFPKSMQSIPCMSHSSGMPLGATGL
T1 sequence (P19491 whole entry): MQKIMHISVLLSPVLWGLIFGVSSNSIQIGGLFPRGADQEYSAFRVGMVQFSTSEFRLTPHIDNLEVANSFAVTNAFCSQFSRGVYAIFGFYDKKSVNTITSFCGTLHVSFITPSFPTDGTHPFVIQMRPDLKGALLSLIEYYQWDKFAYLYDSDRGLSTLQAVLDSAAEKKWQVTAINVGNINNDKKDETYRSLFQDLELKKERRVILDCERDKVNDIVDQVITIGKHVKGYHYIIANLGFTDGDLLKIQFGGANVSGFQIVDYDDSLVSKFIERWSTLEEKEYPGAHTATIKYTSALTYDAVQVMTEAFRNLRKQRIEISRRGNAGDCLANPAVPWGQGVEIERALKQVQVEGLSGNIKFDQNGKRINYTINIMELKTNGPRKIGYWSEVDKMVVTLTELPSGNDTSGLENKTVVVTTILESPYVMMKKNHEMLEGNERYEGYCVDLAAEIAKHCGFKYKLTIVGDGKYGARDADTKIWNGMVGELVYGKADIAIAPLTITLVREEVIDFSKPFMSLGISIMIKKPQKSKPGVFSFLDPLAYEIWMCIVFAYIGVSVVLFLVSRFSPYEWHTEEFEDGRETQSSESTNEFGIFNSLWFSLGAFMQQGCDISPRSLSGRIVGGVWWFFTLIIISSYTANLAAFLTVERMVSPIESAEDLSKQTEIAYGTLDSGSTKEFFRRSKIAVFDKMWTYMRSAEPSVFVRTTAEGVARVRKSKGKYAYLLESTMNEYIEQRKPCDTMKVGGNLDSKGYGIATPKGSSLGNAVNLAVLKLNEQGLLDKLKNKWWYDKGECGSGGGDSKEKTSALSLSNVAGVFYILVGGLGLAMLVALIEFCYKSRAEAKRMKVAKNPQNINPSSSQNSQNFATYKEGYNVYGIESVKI
Sequence of Glutamate receptor ionotropic, kainate 2 (P42260 whole entry): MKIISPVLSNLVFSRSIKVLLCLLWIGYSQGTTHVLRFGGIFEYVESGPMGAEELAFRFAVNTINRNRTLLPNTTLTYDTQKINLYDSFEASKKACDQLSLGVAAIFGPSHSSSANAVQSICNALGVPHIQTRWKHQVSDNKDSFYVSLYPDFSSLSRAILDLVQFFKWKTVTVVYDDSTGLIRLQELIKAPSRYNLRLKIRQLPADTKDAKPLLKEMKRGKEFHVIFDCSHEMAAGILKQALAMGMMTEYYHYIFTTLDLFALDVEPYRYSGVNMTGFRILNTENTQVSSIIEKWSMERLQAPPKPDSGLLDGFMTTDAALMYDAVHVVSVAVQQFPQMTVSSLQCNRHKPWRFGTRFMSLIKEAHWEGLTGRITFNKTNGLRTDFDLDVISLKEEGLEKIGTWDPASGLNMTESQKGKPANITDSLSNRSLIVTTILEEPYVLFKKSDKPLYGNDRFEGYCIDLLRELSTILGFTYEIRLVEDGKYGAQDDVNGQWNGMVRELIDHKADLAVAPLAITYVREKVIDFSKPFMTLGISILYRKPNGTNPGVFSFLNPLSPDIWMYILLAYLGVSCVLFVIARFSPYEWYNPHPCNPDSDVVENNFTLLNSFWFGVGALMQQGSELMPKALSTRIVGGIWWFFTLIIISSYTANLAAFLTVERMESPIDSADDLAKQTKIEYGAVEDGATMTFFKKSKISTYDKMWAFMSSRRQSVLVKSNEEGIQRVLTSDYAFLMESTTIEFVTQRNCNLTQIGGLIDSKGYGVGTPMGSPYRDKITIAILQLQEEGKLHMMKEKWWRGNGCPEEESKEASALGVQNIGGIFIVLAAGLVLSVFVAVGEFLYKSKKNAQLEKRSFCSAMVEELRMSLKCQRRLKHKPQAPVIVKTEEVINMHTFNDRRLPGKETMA
T2 sequence (P42262 whole entry, the tested form may be a part): as the sequence (P19491 whole entry) above, with T191M, A291T, G764R, P852A counted along it

Ki [4] | Ki [5] | SMILES | further results
> 50 µM | > 50 µM | NC(Cc1cc(Cl)c(Cl)c(-c2cncc(O)c2)c1)C(=O)O (racemic) | 
> 50 µM | > 50 µM | NC(Cc1cc(Cl)c(Cl)c(-c2cccc(S(N)(=O)=O)c2)c1)C(=O)O (racemic) | 
> 50 µM | > 50 µM | Nc1cccc(-c2cc(CC(N)C(=O)O)cc(Cl)c2Cl)c1 (racemic) | 
> 50 µM | > 50 µM | NC(Cc1cc(Cl)c(Cl)c(-c2cccc(CO)c2)c1)C(=O)O (racemic) | 
> 50 µM | > 50 µM | NC(Cc1cc(Cl)c(Cl)c(-c2ccc(CO)cc2)c1)C(=O)O (racemic) | 
> 50 µM | > 50 µM | NC(Cc1cc(Cl)c(Cl)c(-c2ccc(S(N)(=O)=O)cc2)c1)C(=O)O (racemic) | 

Continued, molecule first:

SMILES | Ki [4] | Ki [5] | further results
N[C@@H](Cc1cc(Cl)c(Cl)c(-c2cncc(O)c2)c1)C(=O)O | > 50 µM | > 100 µM | Ki [1]: 1.74 µM; IC50 [2]: 3.7 µM; Ki [3]: 2.26 µM; Ki [6]: 6.65 µM; Ki [7]: 6.88 µM; Ki [8]: > 100 µM; Ki [9]: > 100 µM
NC(Cc1cc(Cl)c(Cl)c(-c2ccc(O)c(O)c2)c1)C(=O)O (stereo not given) | > 50 µM | > 50 µM | 
N[C@H](Cc1cc(Cl)c(Cl)c(-c2cncc(O)c2)c1)C(=O)O | > 50 µM | > 100 µM | Ki [1]: > 100 µM; Ki [6]: > 100 µM; Ki [7]: > 100 µM; Ki [8]: > 100 µM; Ki [9]: > 100 µM
NC(Cc1cc(Cl)c(Cl)c(-c2ccc3c(c2)OCCO3)c1)C(=O)O (racemic) | > 50 µM | > 50 µM | 
NC(Cc1cc(Cl)c(Cl)c(-c2ccc(O)nc2)c1)C(=O)O (racemic) | > 50 µM | > 50 µM | 
NC(Cc1cc(Cl)c(Cl)c(-c2cc(O)cc(O)c2)c1)C(=O)O (racemic) | > 50 µM | > 50 µM | 
COc1cccc(-c2cc(CC(N)C(=O)O)cc(Cl)c2Cl)c1 (racemic) | > 50 µM | > 50 µM | 
NC(Cc1cc(Cl)c(Cl)c(-c2cccc(O)c2)c1)C(=O)O (racemic) |  | 92.3 µM | Ki [1]: 5.03 µM; Ki [6]: 17.1 µM; Ki [7]: 55.1 µM; Ki [8]: 78.1 µM; Ki [9]: 52.3 µM
NS(=O)(=O)c1cc2c(cc1Cl)NC(C1CC3C=CC1C3)NS2(=O)=O (stereo not given) [CYCLOTHIAZIDE] |  |  | EC50 [10]: 7.6 µM
